# Laboratory results taken from PMC10258794, “To Fold or Not to Fold: Diastereomeric Optimization of an α-Helical Antimicrobial Peptide” (Journal of Medicinal Chemistry, 2023).
# Like-named read-outs stand apart in the source and are kept apart here. Non-standard residues stand in square brackets, D forms with d. Residues, ends and D or L forms follow the SMILES beside them.
# How the values were obtained:
# [1] = EYPG vesicle leakage assay; format: biochemical; details: 10 μg/mL of compound; 10 mM TRIS, 107 mM NaCl, pH 7.4
# Method: (§1) 5(6)-carboxyfluorescein (CF) was purchased from Sigma. EYPC, EYPG, and a Mini-Extruder were purchased from Avanti Polar Lipids. Egg PC or Egg PG thin lipid layers were prepared by evaporating a solution of 100 mg of EYPC or EYPG in 4 mL of MeOH/CHCl3 (1:1) on a rotary evaporator at room temperature and then dried in vacuo overnight. […] Extravesicular components were removed by gel filtration (Sephadex G-50) with 10 mM TRIS, 107 mM NaCl, pH 7.4 buffer. Final conditions: ∼2.5 mM PC or PG; inside: 50 mM CF, 10 mM TRIS, 10 mM NaCl, pH 7.4 buffer; outside: 10 mM TRIS, 107 mM NaCl, pH 7.4. […] The CF efflux was monitored at λem 517 nm (λex 492 nm) as a function of time after addition of the desired volume of peptide from 2 mg/mL stock in mQ water at t = 45 s, 10 and 50 μg/mL were monitored for both EYPC and EYPG. […] Fluorescence intensities were then normalized to the maximal emission intensity using I(t) = (It – I0)/(I∞ – I0) where I0 = It at peptide addition, I∞ = It at saturation of lysis.
# [2] = tested on: K. pneumoniae NCTC418
# Procedure, shortened: (§2)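 A colony was grown overnight in LB at 37 °C, diluted in MH medium pH 7.4 to OD600 0.022 and added to 1/2 serial dilutions of compound (final about 5 × 10^5 CFU).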
# [3] = tested on: S. aureus COL MRSA; details: for MIC S. aureus COL MRSA: MH broth pH 7.4, 16–20 h, 37 °C
# Procedure, shortened: as §2
# [4] = tested on: E. coli W3110
# Procedure, shortened: as §2
# [5] = tested on: P. aeruginosa PAO1
# Procedure, shortened: as §2
# [6] = tested on: A. baumannii ATCC19606
# Procedure, shortened: as §2
# [7] = tested on: Pseudomonas aeruginosa, Klebsiella pneumoniae, Acinetobacter baumannii, Escherichia coli, and methicillin-resistant Staphylococcus aureus; details: summary of Table 1
# Procedure, shortened: as §2
# [8] = EYPC vesicle leakage assay; format: biochemical; details: 10 μg/mL of compound; 10 mM TRIS, 107 mM NaCl, pH 7.4
# Method: as §1
# [9] = tested on: human red blood cells; test: Hemolysis assay (MHC)
# Method: To determine the MHC stock solutions, 8 mg/mL peptide in PBS (pH 7.4) was prepared, and 50 μL was diluted serially by l/2 in 50 μL of PBS (pH 7.4) in a 96-well plate (Costar or Nunc, polystyrene, untreated). […] Plasma was discarded, and the pellet was re-suspended in a 15 mL Falcon tube in 5 mL of PBS. The washing was repeated three times, and the remaining pellet was re-suspended in 10 mL of PBS. The hRBC suspension (50 μL) was added to each well, and the plate was incubated at room temperature for 4 h. MHC end points were determined by visual determination of the wells after the incubation period. Controls on each plate included a blank medium control (50 μL PBS + 50 μL of hRBCs suspension) and a hemolytic activity control (mQ-deionized water 50 μL + 50 μL hRBC suspension).
# [10] = CD spectroscopy, α-helix content; format: physicochemical; details: 5 mM DPC in 7 mM PB buffer pH 7.4, Dichroweb Contin LL set 4
# Method: CD experiments were measured on a Jasco J-715 spectropolarimeter. All the experiments were performed using Hellma Suprasil 110-QS 0.1 cm cuvettes. For each peptide, the measurements were performed in phosphate buffer (PB, pH = 7.4, 7 mM), 10% TFE, 20% TFE, 5 mM DPC. The buffer was degassed for 10 min under high vacuum before each set of experiments. The concentration of the peptides was 0.100 mg/mL, and each sample was measured in one accumulation. The scan rate was 20 nm/min, pitch was 0.5 nm, response was 16 s, and bandwidth was 1.0 nm. The nitrogen flow was kept >8 L/min. After each measurement, the cuvettes were washed successively with milli-Q H2O and PB (pH 7.4). The baseline was recorded under the same conditions and subtracted manually. Primary CD spectra were analyzed using DichroWeb[58] and Contin-LL method (set 4).[74]
# [11] = tested on: P. aeruginosa ZEM-1A; test: microbe, parasite or virus in culture; details: pH 7.4
# Procedure, shortened: as §2
# [12] = tested on: PA14 2P4 (pmrB); test: microbe, parasite or virus in culture; details: supplementary CSV
# Procedure, shortened: as §2
# [13] = tested on: P. aeruginosa PA14; test: microbe, parasite or virus in culture
# Procedure, shortened: as §2
# [14] = tested on: PA14 4.13 (phoQ); test: microbe, parasite or virus in culture; details: supplementary CSV
# Procedure, shortened: as §2
# [15] = tested on: PA14 4.18 (pmrB); test: microbe, parasite or virus in culture; details: supplementary CSV
# Procedure, shortened: as §2
# [16] = tested on: Burkolderia cenocepacia; test: microbe, parasite or virus in culture; details: MDR strain; MH broth pH 7.4, 16–20 h, 37 °C
# [17] = tested on: Enterobacter cloacae; test: microbe, parasite or virus in culture; details: pH 7.4
# Procedure, shortened: as §2
# [18] = tested on: K. pneumoniae Oxa-48; test: MIC broth microdilution, K. pneumoniae Oxa-48; format: cell-based, Klebsiella pneumoniae; details: MDR strain; MH broth pH 7.4, 16–20 h, 37 °C
# Method: (§3) Antimicrobial activity was determined for all peptides on E. coli W3110, P. aeruginosa PAO1, A. baumannii ATCC19606, K. pneumoniae NCTC418, and methicillin-resistant S. aureus COL and for selected peptides on P. aeruginosa PA14 and the polymyxin B-resistant derivatives PA14 4.13, PA14 4.18, and PA14 2P4 as well as the clinical isolates ZEM-1A and ZEM9A, K. pneumoniae OXA-48, Enterobacter cloacae, Stenotrophomonas maltophilia, B. cenocepacia, and Staphylococus epidermis. To determine the MIC, the broth microdilution method was used.[75] A single bacterial colony was grown in LB medium overnight at 37 °C and 180 rpm shaking. The compounds were prepared as stock solutions of 2 mg/mL in sterilized milliQ deionized water, added to the first well of 96-well sterile, polypropylene round-bottom microtiter plates (TPP, untreated, Corning Incorporated, Kennebunk, USA), and diluted serially by 1/2. […] The bacterial inoculum was prepared by measuring the absorbance of the overnight culture, which was diluted to concentration of the bacteria was quantified by measuring absorbance at 600 nm and diluted to an OD600 of 0.022 in MH medium pH 7.4 (Sigma-Aldrich, Buchs, Switzerland). The sample solutions (150 μL) were mixed with 4 μL of diluted bacterial suspension with a final inoculation of about 5 × 10^5 CFU. For each test, two columns of the plate were kept for sterility control (MH medium only) and growth control (MH medium with bacterial inoculum, no compound). […] The plates were incubated at 37 °C for 16–20 h under static conditions. 15 μL of 3-(4,5-dimethylthiazol-2-yl)-2,5-diphenyltetrazolium bromide (MTT)[76] (1 mg/mL in sterilized milliQ deionized water) was added to each well, and the plates were incubated at room temperature until MTT staining was completed. The MIC was defined as the lowest concentration of the dendrimer that inhibits the visible growth of the tested bacteria (yellow) with the unaided eye.
# [19] = tested on: Staphylococcus epidermis; test: MIC broth microdilution, Staphylococcus epidermis; format: cell-based; details: pH 7.4
# Method: as §3
# [20] = tested on: P. aeruginosa ZEM9A; test: microbe, parasite or virus in culture; format: cell-based, Pseudomonas aeruginosa; details: pH 7.4
# Method: as §3
# [21] = tested on: Stenotrophomonas maltophilia; test: microbe, parasite or virus in culture; format: cell-based; details: pH 7.4
# Method: as §3
# [22] = tested on: S. aureus Newman
# [23] = tested on: HEK293 cells; test: Alamar blue cytotoxicity, HEK293; format: cell-based, human; details: 24 h, mean ± SD, n = 3, read-out: Toxicity on HEK293 cells
# Method: The A549 human lung adenocarcinoma cells are derived from a patient and were kindly given to us by Dr. Georgia Konstatinidou (Pharmacology Institute, Bern University). HEK293T cells were obtained from ATCC (CRL-11268). A549 and HEK293 were cultured in an incubator at 37 °C with 5% CO2 in RPMI-1640 (Gibco) and DMEM (Gibco) containing 10% fetal bovine serum (Thermo Fisher), 100 I.U./mL penicillin, and 100 μg/mL streptomycin (Gibco).
# The viability of the cells was assessed with an AlamarBlue assay (ThermoFisher). Cells were seeded into 96-well plates, 4000 cells/well (HEK293) and 8000 cells/well (A549), the day before the experiment. Cells were then treated with the increasing concentration of the compound and incubated for 24 h at 37 °C in the presence of 5% CO2. The next day, the medium was removed and replaced by a 10% AlamarBlue solution in full growth medium (DMEM or RPMI-1640). The cells were incubated for 3–5 h at 37 °C with 5% CO2 in a humidified atmosphere. The fluorescence was then measured on a Tecan Infinite M1000 Pro plate reader at λex 560 nm and λem 590 nm. The value was normalized according to the untreated cells.
# [24] = MH broth pH 7.4, 16–20 h, 37 °C
# [25] = supplementary CSV, ranges of Table 1 given as one number
Compound,EYPG vesicle leakage (%) [1],"MIC K. pneumoniae NCTC418 [2, 24]",MIC K. pneumoniae NCTC418 ([2]; NCTC418),MIC S. aureus COL MRSA [3],"MIC E. coli W3110 [4, 24]","MIC P. aeruginosa PAO1 [5, 24]","MIC A. baumannii ATCC19606 [6, 24]","MIC, span over the five bacterial strains [7]",EYPC vesicle leakage (%) [8],MHC [9],MHC ([9]; pH 7.4),α-helix content (%) [10],"MIC K. pneumoniae NCTC418 [2, 25]","MIC S. aureus COL [3, 25]","MIC P. aeruginosa PAO1 [5, 25]",also measured
H-KKLLKLLKLLLKKLLKLLKLLL-NH2 [2ln65],73%,>64 µg/mL,>64 µg/mL,>64 µg/mL,>64 µg/mL,>64 µg/mL,>64 µg/mL,entirely inactive,40%,< 15.6 µg/mL,<15.6 µg/mL,91%,–,–,–,–
"CC[C@H](C)[C@H](NC(=O)[C@@H](NC(=O)[C@@H](NC(=O)[C@@H](CCCCN)NC(=O)[C@@H](NC(=O)[C@@H](NC(=O)[C@@H](CCCCN)NC(=O)[C@@H](NC(=O)[C@@H](NC(=O)[C@@H](CCCCN)NC(=O)[C@H](N)CCCCN)[C@@H](C)CC)[C@@H](C)CC)[C@@H](C)CC)[C@@H](C)CC)[C@@H](C)CC)[C@@H](C)CC)C(N)=O [HP35, kkIIkIIkIII] (H-[dK][dK]II[dK]II[dK]III-NH2)",98%,>64 µg/mL,–,>64 µg/mL,4 µg/mL,16 µg/mL,8 µg/mL,–,13%,125 µg/mL,125 µg/mL,22%,–,–,–,MIC S. aureus COL ([3]; COL): >64 µg/mL
"CC(C)C[C@H](NC(=O)[C@H](CC(C)C)NC(=O)[C@H](CC(C)C)NC(=O)[C@H](CCCCN)NC(=O)[C@@H](CC(C)C)NC(=O)[C@H](CC(C)C)NC(=O)[C@H](CCCCN)NC(=O)[C@@H](CC(C)C)NC(=O)[C@@H](CC(C)C)NC(=O)[C@@H](CCCCN)NC(=O)[C@@H](N)CCCCN)C(N)=O [HP11, KkllKLlKLLL]",–,4 to 8 µg/mL,–,2 µg/mL,2 µg/mL,2 to 4 µg/mL,2 µg/mL,2 to 8 µg/mL,–,–,–,–,6 µg/mL,2 µg/mL,3 µg/mL,"MIC ZEM-1A [11]: 2 µg/mL; MIC P. aeruginosaPA14 2P4 [12]: 16 µg/mL; MIC PA14 [13, 24]: 1 µg/mL; MIC P. aeruginosa PA14 ([13]; supplementary CSV): 1 µg/mL; MIC P. aeruginosa PA14 4.13 [14]: 2 µg/mL; MIC P. aeruginosa PA14 4.18 [15]: 8 µg/mL; MIC Burkolderia cenocepacia [16]: >64 µg/mL; MIC Enterobacter cloacae [17]: 4 µg/mL; MIC K. pneumoniae Oxa-48 [18]: 4 µg/mL; MIC Staphylococcus epidermis [19]: 4 µg/mL; MIC ZEM9A [20]: 8 µg/mL; MIC Stenotrophomonas maltophilia [21]: 4 µg/mL; MIC A. baumannii ATCC19606 [6, 25]: 2 µg/mL; MIC S. aureus Newman [22, 24]: 2 µg/mL; MIC S. aureus Newmann ([22]; supplementary CSV): 2 µg/mL; IC50 [23]: 64.8 ± 4.3 µM"
"CC(C)C[C@H](NC(=O)[C@H](CC(C)C)NC(=O)[C@H](CC(C)C)NC(=O)[C@@H](CCCNC(=N)N)NC(=O)[C@H](CC(C)C)NC(=O)[C@H](CC(C)C)NC(=O)[C@@H](CCCNC(=N)N)NC(=O)[C@H](CC(C)C)NC(=O)[C@H](CC(C)C)NC(=O)[C@@H](CCCNC(=N)N)NC(=O)[C@H](N)CCCNC(=N)N)C(N)=O [HP33, rrLLrLLrLLL] (H-[dR][dR]LL[dR]LL[dR]LLL-NH2)",85%,4 to 8 µg/mL,–,2 to 4 µg/mL,4 to 8 µg/mL,4 to 8 µg/mL,4 µg/mL,–,56%,–,–,63%,6 µg/mL,3 µg/mL,6 µg/mL,"MIC E. coli W3110 [4, 25]: 6 µg/mL; MHC ([9]; human red blood cells in PBS pH 7.4, 4 h, room temperature): 125 µg/mL; MHC ([9]; supplementary CSV, human red blood cells): 125 µg/mL"
H-KKIIKIIKIII-NH2 [HP34],95%,>64 µg/mL,>64 µg/mL,>64 µg/mL,32 µg/mL,>64 µg/mL,–,–,10%,63 µg/mL,62.5 µg/mL,68%,–,–,–,"MIC A. baumannii ATCC19606 ([6]; ATCC19606): 12 µg/mL; MIC A. baumannii ATCC19606 ([6]; ATCC19606, pH 7.4): 8 to 16 µg/mL"
